Test results: patent US8084489B2 (Eli Lilly and Company, priority 2005, dated 2011)

Target: cloned human glucagon receptor (Homo sapiens, UniProt P47871)
Assay: Glucagon Receptor (hGlucR) Binding Assay
Method: This plasmid DNA was transfected into 293 HEK cells and selected with 200 ug/ml Hygromycin.
Crude plasma membranes are prepared using cells from suspension culture. The cells are lysed on ice in hypotonic buffer containing 25 mM Tris HCL, pH 7.5, 1 mM MgCl2, DNAse1, 20 u/ml, and Roche Complete Inhibitors-without EDTA. The cell suspension is homogenized with a glass dounce homogenizer using a Teflon pestle for 25 strokes. The homogenate is centrifuged at 4 degrees C. at 1800×g for 15 mins. The supernate is collected and the pellet is resuspended in hypotonic buffer and rehomogenized. The mixture is centrifuged at 1800×g for 15 mins. The second supernate is combined with the first supernate. The combined supernates are recentrifuged at 1800×g for 15 mins to clarify. The clarified supernate is transferred to high speed tubes and centrifuged at 25000×g for 30 minutes at 4 degrees C. The membrane pellet is resuspended in homogenization buffer and stored as frozen aliquots at −80 degree C. freezer until needed.
The specific activity is 2200 Ci/mmol.
The binding buffer contains 25 mM Hepes, pH 7.4, 2.5 mM CaCl2, 1 mM MgCl2, 0.1% fatty acid free BSA, (ICN), 0.003% tween-20, and Roche Complete Inhibitors without EDTA. […] Test compounds are dissolved in DMSO and serially diluted in DMSO. […] Plates are read with a MicroBeta after 14 hours of settling time at room temp. […]

Sequence of cloned human glucagon receptor (P47871 26-477): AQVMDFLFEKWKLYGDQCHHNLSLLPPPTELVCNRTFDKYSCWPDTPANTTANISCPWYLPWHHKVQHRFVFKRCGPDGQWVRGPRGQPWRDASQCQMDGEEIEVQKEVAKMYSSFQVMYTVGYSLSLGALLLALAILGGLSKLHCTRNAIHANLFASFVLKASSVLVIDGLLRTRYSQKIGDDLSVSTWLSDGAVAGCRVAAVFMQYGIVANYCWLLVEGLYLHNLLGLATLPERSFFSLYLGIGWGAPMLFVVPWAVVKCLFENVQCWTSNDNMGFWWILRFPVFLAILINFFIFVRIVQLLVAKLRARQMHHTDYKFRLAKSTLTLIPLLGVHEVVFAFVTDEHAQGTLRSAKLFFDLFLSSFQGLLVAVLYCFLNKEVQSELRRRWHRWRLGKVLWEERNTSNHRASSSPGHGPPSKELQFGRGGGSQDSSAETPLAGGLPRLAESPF

Ki [µM] | SMILES
0.296 | CC(C)CC(Oc1ccc(-c2ccc(C(C)(C)C)cc2)nc1)c1ccc(C(=O)NCCC(=O)O)s1 (centres unmarked)
0.39 | CC(C)CC(Oc1ccc(-c2ccc(C(F)(F)F)cc2)cc1)c1ccc(C(=O)NCCC(=O)O)s1 (centres unmarked)
